Measurements: US9247746B2, “Fungicidal substituted 1-{2-cyclyloxy-2-[2-halo-4-(4-halogen-phenoxy)-phenyl]-ethyl}-1H-[1,2,4]triazole compounds” (BASF SE, priority 2011, dated 2016)

Experiments:
[1] = system: Septoria tritici; assay: Preventative control of leaf blotch on wheat (Septtr P7), green house; format: in vivo; details: inoculated 7 days after spraying, untreated control 90
Method: The spray solutions were prepared in several steps: The stock solution were prepared: a mixture of acetone and/or dimethylsulfoxide and the wetting agent/emulsifier Wettol, which is based on ethoxylated alkylphenoles, in a relation (volume) solvent-emulsifier of 99 to 1 was added to 25 mg of the compound to give a total of 5 ml. Water was then added to total volume of 100 ml. This stock solution was diluted with the described solvent-emulsifier-water mixture to the given concentration. G1. Preventative Control of Brown Rust on Wheat Caused by Puccinia recondita (Puccrt P1) G3. Preventative Control of Leaf Blotch on Wheat Caused by Septoria tritici (Septtr P7) Leaves of pot-grown wheat seedling were sprayed to run-off with an aqueous suspension of the active compound or their mixture, prepared as described. The plants were allowed to air-dry. Seven days later the plants were inoculated with an aqueous spore suspension of Septoria tritici. Then the trial plants were immediately transferred to a humid chamber at 18-22° C. and a relative humidity close to 100%. After 4 days the plants were transferred to a chamber with 18-22° C. and a relative humidity close to 70%. After 4 weeks the extent of fungal attack on the leaves was visually assessed as % diseased leaf area.

[2] = system: Septoria tritici; assay: Microtest: activity against leaf blotch on wheat (Septtr); format: cell-based
Method: The active compounds were formulated separately as a stock solution having a concentration of 10000 ppm in dimethyl sulfoxide. M2. Activity Against Leaf Blotch on Wheat Caused by Septoria tritici(Septtr) The stock solutions were mixed according to the ratio, pipetted onto a micro titer plate (MTP) and diluted with water to the stated concentrations. A spore suspension of Septoria tritici in an aqueous biomalt or yeast-bactopeptone-glycerine solution was then added. The plates were placed in a water vapor-saturated chamber at a temperature of 18° C. Using an absorption photometer, the MTPs were measured at 405 nm 7 days after the inoculation.

[3] = system: Phakopsora pachyrhizi; assay: Protective control of soy bean rust on soy beans (Phakpa P2), green house; format: in vivo; details: inoculated 2 days after spraying, untreated control 90
Method: The spray solutions were prepared in several steps:
The stock solution were prepared: a mixture of acetone and/or dimethylsulfoxide and the wetting agent/emulsifier Wettol, which is based on ethoxylated alkylphenoles, in a relation (volume) solvent-emulsifier of 99 to 1 was added to 25 mg of the compound to give a total of 5 ml. Water was then added to total volume of 100 ml. This stock solution was diluted with the described solvent-emulsifier-water mixture to the given concentration. G1. Preventative Control of Brown Rust on Wheat Caused by Puccinia recondita (Puccrt P1)
G4. Protective Control of Soy Bean Rust on Soy Beans Caused by Phakopsora pachyrhizi (Phakpa P2)
Leaves of pot-grown soy bean seedlings were sprayed to run-off with an aqueous suspension, containing the concentration of active ingredient or their mixture as described below. The plants were allowed to air-dry. The trial plants were cultivated for 2 days in a greenhouse chamber at 23-27° C. and a relative humidity between 60 and 80%. Then the plants were inoculated with spores of Phakopsora pachyrhizi. To ensure the success the artificial inoculation, the plants were transferred to a humid chamber with a relative humidity of about 95% and 20 to 24° C. for 24 h. […] The extent of fungal attack on the leaves was visually assessed as % diseased leaf area.

Row | Compound | Disease (%) at 16 ppm Septtr P7 [1] | Growth (%) at 0.00012 ppm Septtr [2] | Disease (%) at 63 ppm Phakpa P2 [3]
1 | COC(C)(Cn1cncn1)c1ccc(Oc2ccc(Cl)cc2)cc1Cl (stereo not shown) | 80% | 63% | 
2 | CCC(Cn1cncn1)(OC)c1ccc(Oc2ccc(Cl)cc2)cc1Cl (stereo not shown) |  |  | 60%
3 | CC(Cn1cncn1)(OCc1ccccc1)c1ccc(Oc2ccc(Cl)cc2)cc1Cl (stereo not shown) [I-1, 1-[2-benzyloxy-2-[2-chloro-4-(4-chlorophenoxy)phenyl]propyl]-1,2,4-triazole] |  | 23% | 
